Data on 18 molecules can be found in ChEMBL document CHEMBL1909046, “DrugMatrix in vitro pharmacology data”.

In test [1] the target is T1, Alpha-2C adrenergic receptor (Homo sapiens, UniProt P18825).
T1 sequence (P18825 whole entry): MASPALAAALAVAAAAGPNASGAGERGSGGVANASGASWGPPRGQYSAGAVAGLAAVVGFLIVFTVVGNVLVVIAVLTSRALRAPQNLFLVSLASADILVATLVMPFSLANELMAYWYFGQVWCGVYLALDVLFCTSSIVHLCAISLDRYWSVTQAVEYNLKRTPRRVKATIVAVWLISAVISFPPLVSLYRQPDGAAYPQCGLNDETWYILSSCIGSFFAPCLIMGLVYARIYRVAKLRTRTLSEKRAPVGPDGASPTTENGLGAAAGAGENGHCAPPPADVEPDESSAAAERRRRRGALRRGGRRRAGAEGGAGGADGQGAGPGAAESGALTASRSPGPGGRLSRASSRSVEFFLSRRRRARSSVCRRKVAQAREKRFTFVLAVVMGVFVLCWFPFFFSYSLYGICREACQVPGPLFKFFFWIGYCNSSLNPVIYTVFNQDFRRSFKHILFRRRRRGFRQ
Description: DRUGMATRIX: Adrenergic Alpha-2C radioligand binding (ligand: [3H] MK-912). As to conditions: sf9. Type of test: cell membranes, Sf9, Membrane.

The nature of test [2]: DRUGMATRIX: Calcium Channel Type L, Phenylalkylamine radioligand binding (ligand: [3H] (-)-Desmethoxyverapamil (D-888)). Type of test: cell membranes, Rattus norvegicus, Wistar, Brain, Membrane. As to conditions: Not Active = under 50% inhibition at 10 µM.
For test [3], the target named is Sodium-dependent dopamine transporter (Homo sapiens, UniProt Q01959). In words: DRUGMATRIX: Dopamine Transporter radioligand binding (ligand: [125I] RTI-55). Type of test: cell membranes, CHO-K1, Membrane. As to conditions: Not Active = under 50% inhibition at 10 µM.
Sequence of Sodium-dependent dopamine transporter (Q01959 whole entry): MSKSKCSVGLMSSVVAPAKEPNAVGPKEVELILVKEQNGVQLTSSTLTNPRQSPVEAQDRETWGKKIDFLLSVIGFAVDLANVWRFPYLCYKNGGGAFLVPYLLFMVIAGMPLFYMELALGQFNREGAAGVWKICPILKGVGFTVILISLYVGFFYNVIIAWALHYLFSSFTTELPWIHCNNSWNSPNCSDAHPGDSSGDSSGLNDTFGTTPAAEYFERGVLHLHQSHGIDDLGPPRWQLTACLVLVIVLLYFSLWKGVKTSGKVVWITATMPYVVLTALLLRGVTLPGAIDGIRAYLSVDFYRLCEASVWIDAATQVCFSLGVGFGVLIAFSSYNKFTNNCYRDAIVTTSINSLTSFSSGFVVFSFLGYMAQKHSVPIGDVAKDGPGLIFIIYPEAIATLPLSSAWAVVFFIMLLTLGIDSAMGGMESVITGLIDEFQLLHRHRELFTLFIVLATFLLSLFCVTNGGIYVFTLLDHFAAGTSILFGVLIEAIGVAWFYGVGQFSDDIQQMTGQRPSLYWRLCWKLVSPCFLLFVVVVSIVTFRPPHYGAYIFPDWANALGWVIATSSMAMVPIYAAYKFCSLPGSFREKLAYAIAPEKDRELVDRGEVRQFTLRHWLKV
Test [4] has as its target T2, Neuropeptide Y receptor type 2 (Homo sapiens, UniProt P49146). Further: in other assays of this panel Not Active means under 50% inhibition at 10 µM.
T2 sequence (P49146 whole entry): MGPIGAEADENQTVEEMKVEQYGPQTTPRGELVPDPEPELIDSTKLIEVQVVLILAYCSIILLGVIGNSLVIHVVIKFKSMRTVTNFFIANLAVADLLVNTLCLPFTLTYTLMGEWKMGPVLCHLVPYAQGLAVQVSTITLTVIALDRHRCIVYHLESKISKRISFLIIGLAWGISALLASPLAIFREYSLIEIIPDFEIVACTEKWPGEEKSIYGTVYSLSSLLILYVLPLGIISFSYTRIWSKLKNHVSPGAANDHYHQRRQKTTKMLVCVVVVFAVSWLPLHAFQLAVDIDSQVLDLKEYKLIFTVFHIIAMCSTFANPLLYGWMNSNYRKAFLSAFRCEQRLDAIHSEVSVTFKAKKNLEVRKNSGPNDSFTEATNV
It is filed as cell membranes, Membrane. As to conditions: kan-ts.

Test [5] deals with Acetylcholinesterase (Homo sapiens, UniProt P22303). Description: DRUGMATRIX: Acetylcholinesterase enzyme inhibition (substrate: acetylthiocholine). To be noted: hek293; Not Active = under 50% inhibition at 10 µM. It is filed as cell-based, HEK293.
Sequence of Acetylcholinesterase (P22303 whole entry): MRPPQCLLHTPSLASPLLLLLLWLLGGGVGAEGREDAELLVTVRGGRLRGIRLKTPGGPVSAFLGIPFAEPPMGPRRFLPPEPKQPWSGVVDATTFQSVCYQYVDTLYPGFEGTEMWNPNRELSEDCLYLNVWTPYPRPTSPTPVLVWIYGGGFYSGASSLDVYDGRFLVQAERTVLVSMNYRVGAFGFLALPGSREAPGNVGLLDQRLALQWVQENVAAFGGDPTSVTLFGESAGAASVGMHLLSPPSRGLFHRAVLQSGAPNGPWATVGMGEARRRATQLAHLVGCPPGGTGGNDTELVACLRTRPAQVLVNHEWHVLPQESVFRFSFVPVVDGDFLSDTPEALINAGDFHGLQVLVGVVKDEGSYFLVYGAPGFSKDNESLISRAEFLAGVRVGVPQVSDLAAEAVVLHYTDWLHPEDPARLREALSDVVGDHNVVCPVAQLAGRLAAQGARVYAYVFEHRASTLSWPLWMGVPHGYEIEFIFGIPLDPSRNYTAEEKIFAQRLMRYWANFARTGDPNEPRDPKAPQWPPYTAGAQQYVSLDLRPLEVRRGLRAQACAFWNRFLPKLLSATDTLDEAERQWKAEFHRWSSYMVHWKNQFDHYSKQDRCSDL
Test [6] has as its target T3, Glucocorticoid receptor (Homo sapiens, UniProt P04150). Further: in other assays of this panel Not Active means under 50% inhibition at 10 µM.
T3 sequence (P04150 whole entry): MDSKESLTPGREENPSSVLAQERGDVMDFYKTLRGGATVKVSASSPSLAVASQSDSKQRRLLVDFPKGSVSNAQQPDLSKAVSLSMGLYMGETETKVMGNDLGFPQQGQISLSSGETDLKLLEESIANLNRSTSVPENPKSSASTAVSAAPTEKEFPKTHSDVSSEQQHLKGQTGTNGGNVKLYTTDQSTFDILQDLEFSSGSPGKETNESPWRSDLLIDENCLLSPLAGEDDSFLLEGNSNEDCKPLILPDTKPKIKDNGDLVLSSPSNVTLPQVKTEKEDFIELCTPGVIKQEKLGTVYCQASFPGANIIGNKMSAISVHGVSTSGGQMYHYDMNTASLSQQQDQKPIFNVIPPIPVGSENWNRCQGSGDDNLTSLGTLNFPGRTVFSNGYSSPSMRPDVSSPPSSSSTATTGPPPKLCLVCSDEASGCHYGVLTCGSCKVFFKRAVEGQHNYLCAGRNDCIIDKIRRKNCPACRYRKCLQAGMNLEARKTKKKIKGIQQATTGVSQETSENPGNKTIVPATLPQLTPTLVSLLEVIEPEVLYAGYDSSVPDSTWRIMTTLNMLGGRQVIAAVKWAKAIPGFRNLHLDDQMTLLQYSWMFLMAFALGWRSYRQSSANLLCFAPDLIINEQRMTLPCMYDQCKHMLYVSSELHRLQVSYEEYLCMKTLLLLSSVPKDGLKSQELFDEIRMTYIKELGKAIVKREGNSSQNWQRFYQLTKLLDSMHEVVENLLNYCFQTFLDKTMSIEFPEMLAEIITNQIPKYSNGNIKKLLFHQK
To be noted: hela s3.

Molecules are shown by their SMILES.

`c1ccc(Cn2ccnc2)cc1`: the IC50 result in test [1], in test [2], in test [3] (cho-k1), in test [4], in test [5] and in test [6] was “Not Active” throughout. Further, the Ki entry in test [2] is “Not Active”.

On to `C[N+](C)(C)CCOP(=O)([O-])OC[C@H](O)CO`, for which the IC50 entry in test [1], in test [2], in test [3] (cho-k1), in test [4], in test [5] and in test [6] was “Not Active” throughout. Besides, in test [2], the Ki result was “Not Active”.

For the molecule `NC(=O)CN1CCCC1=O`, the IC50 result in test [1], in test [2], in test [3] (cho-k1), in test [4], in test [5] and in test [6] was “Not Active” throughout. Besides, the Ki result in test [2] was “Not Active”.

`OC[C@H]1OC2C3[C@@H](CO)OC(O[C@H]4[C@H](O)[C@@H](O)[C@@H](O[C@H]5[C@H](O)[C@@H](O)[C@@H](O[C@H]6[C@H](O)[C@@H](O)[C@@H](O[C@H]7[C@H](O)[C@@H](O)[C@@H](O[C@H]8[C@H](O)[C@@H](O)[C@@H](O[C@H]9[C@H](O)[C@@H](O)C(OC1[C@H](O)[C@H]2O)O[C@@H]9CO)O[C@@H]8CO)O[C@@H]7CO)O[C@@H]6CO)O[C@@H]5CO)O[C@@H]4CO)[C@H](O)[C@H]3O`: the IC50 result in test [1], in test [2], in test [3] (cho-k1), in test [4], in test [5] and in test [6] was “Not Active” throughout. Besides, the Ki entry in test [2] was “Not Active”.

Turning to `CN(CCOc1ccc(C[C@H](Nc2ccccc2C(=O)c2ccccc2)C(=O)O)cc1)c1ccccn1`, the IC50 result in test [1] was “Not Active”; in test [2] it was “Not Active”; in test [3] (read-out: IC50), 13.6 µM; in test [4], “Not Active”; in test [5], “Not Active”; in test [6] it was “Not Active”. Also, the results for the Ki entry in test [2] and in test [3] (read-out: Ki) were “Not Active” and 10.8 µM, respectively.

Take `O=c1[nH]c2ccccc2c2ccccc12`: the 50% inhibitory concentration (IC50) result in test [1], in test [2], in test [3] (cho-k1), in test [4], in test [5] and in test [6] was “Not Active” in each case. Moreover, the Ki entry in test [2] is reported as “Not Active”.

On to `CO[C@H]1O[C@@H]2O[C@@]3(C)CC[C@H]4[C@H](C)CC[C@@H]([C@H]1C)[C@@]24OO3`, for which the IC50 result in test [1], in test [2], in test [3] (cho-k1), in test [4], in test [5] and in test [6] was “Not Active” in each case. The inhibition constant Ki entry in test [2] is on record as “Not Active”.

In the case of `Nc1ccc(Cc2ccc(N)cc2)cc1`, the IC50 result in test [1], in test [2], in test [3] (cho-k1), in test [4], in test [5] and in test [6] was “Not Active” throughout. The Ki result in test [2] is “Not Active”.

With `C=C(Cl)Cl` [1,1-DICHLOROETHENE], the IC50 result in test [1], in test [2], in test [3] (cho-k1), in test [4], in test [5] and in test [6] was “Not Active” in each case. In test [2], the Ki entry is “Not Active”.

For `CC(=O)Nc1ccc2c(c1)Cc1ccccc1-2` [2-ACETYLAMINOFLUORENE], the IC50 result in test [1], in test [2], in test [3] (cho-k1), in test [4], in test [5] and in test [6] was “Not Active” throughout. The Ki result in test [2] is listed as “Not Active”.

As to `O=C(Nc1ccc(Cl)c(Cl)c1)c1cc(Cl)cc(Cl)c1O` [3,3',4',5-TETRACHLOROSALICYLANILIDE], the IC50 entry in test [1], in test [2], in test [3] (cho-k1), in test [4], in test [5] and in test [6] was “Not Active” in each case. Further, the Ki result in test [2] was “Not Active”.

As for `CCO` [ALCOHOL], the IC50 entry in test [1], in test [2], in test [3] (cho-k1), in test [4], in test [5] and in test [6] was “Not Active” each time. Further, in test [2], the Ki result is on record as “Not Active”.

Regarding `OC[C@H]1O[C@@H]2O[C@H]3[C@H](O)[C@@H](O)[C@@H](O[C@H]4[C@H](O)[C@@H](O)[C@@H](O[C@H]5[C@H](O)[C@@H](O)[C@@H](O[C@H]6[C@H](O)[C@@H](O)[C@@H](O[C@H]7[C@H](O)[C@@H](O)[C@@H](O[C@H]1[C@H](O)[C@H]2O)O[C@@H]7CO)O[C@@H]6CO)O[C@@H]5CO)O[C@@H]4CO)O[C@@H]3CO` [ALFADEX], the IC50 result in test [1], in test [2], in test [3] (cho-k1), in test [4], in test [5] and in test [6] was “Not Active” throughout. Further, the Ki entry in test [2] was “Not Active”.

As for `Oc1ncnc2[nH]ncc12` [ALLOPURINOL], the IC50 result in test [1], in test [2], in test [3] (cho-k1), in test [4], in test [5] and in test [6] was “Not Active” each time. The Ki result in test [2] is “Not Active”.

For the molecule `C=CCO` [ALLYL ALCOHOL], the IC50 entry in test [1], in test [2], in test [3] (cho-k1), in test [4], in test [5] and in test [6] was “Not Active” throughout. Besides, the inhibition constant (Ki) entry in test [2] was “Not Active”.

Regarding `Nc1nc(N)c2nc(CNc3ccc(C(=O)N[C@@H](CCC(=O)O)C(=O)O)cc3)cnc2n1` [AMINOPTERIN], the IC50 result in test [1], in test [2], in test [3] (cho-k1), in test [4], in test [5] and in test [6] was “Not Active” in each case. Further, the Ki entry in test [2] was “Not Active”.

Turning to `Nc1ccc(C(=O)O)c(O)c1` [AMINOSALICYLIC ACID], the IC50 entry in test [1], in test [2], in test [3] (cho-k1), in test [4], in test [5] and in test [6] was “Not Active” in each case. Further, the Ki result in test [2] was “Not Active”.

Take `Cc1cc(C(C)(C)C)c(O)c(C)c1CC1=NCCN1` [OXYMETAZOLINE]: the IC50 in test [2] (read-out: IC50) was 2.25 µM; in test [3] (cho-k1), “Not Active”; in test [4], “Not Active”; in test [5] it was “Not Active”; in test [6] it was “Not Active”. Also, the Ki in test [2] (read-out: Ki) is 2.18 µM.

What is called IC50 is the concentration that gives 50% inhibition. The term Ki denotes a dissociation constant, usually derived from enzyme kinetics or from competition with a known ligand.
